Results from patent publication US11737461B2, “Citrate perhydrates and uses thereof” (BIOREM ENGINEERING SA, priority 2018, dated 2023).

How the values were obtained:
[1] = pH of an aqueous solution of the compound (pH meter); format: physicochemical; details: for pH: sample solution of Table 13 (0.2 M H2O2 and/or citrate)
Botrytis cinerea = details: samples at equivalent concentrations (0.2 M)
[2] = other compound containing hydrogen peroxide, dissolved; cited from earlier work

| Compound | pH [1] | MIC Botrytis (Botrytis cinerea) | pH obtained by dissolving [2] | pH of an aqueous solution ([1]; diluted 20× in water) |
| --- | --- | --- | --- | --- |
| OO [Hydrogen peroxide] | 6.4 | non actif |  |  |
| O=C(O)CC(O)(CC(=O)O)C(=O)O [Acide citrique, Citric acid] |  | non actif |  |  |
| O.O.O.O=C([O-])CC(O)(CC(=O)[O-])C(=O)O.O=C([O-])CC(O)(CC(=O)[O-])C(=O)O.[Na+].[Na+].[Na+].[Na+] [Disodium citrate sesquihydrate] | 4.9 | non actif |  |  |
| O=C([O-])[O-].O=C([O-])[O-].OO.OO.OO.[Na+].[Na+].[Na+].[Na+] [sodium percarbonate] |  |  | 11 |  |
| anhydrous disodium citrate monoperhydrate [disodium citrate perhydrate] |  | 108 mM |  |  |
| O.O.O=C([O-])CC(O)(CC(=O)[O-])C(=O)[O-].OO.[Na+].[Na+].[Na+] [trisodium citrate monoperhydrate dihydrate] | 8.2 | 72 mM |  | 7.6 (±0.3) |
